Measured values taken from PubChem BioAssay (NCI).
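Exposure lasted 48 hours, with cells grown in 96-well plates and compounds tested at five concentrations. Abbreviation: GI50, concentration required for 50% inhibition of growth. TGI marks complete inhibition of growth.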

Assays:
Test in all cases: DTP human tumour cell line panel, 48 h
[1] = test system: SK-MEL-28 melanoma
[2] = test system: SK-MEL-2 melanoma
[3] = test system: MALME-3M melanoma
[4] = test system: A498 renal
[5] = test system: NCI-H23 lung
[6] = test system: KM12 colon
[7] = test system: RXF 393 renal
[8] = test system: NCI-H460 lung
[9] = test system: HCT-116 colon
[10] = test system: SNB-19 CNS

Structure (SMILES) | TGI [1] | TGI [2] | TGI [3] | TGI [4] | TGI [5] | TGI [6] | TGI [7] | TGI [8] | TGI [9] | TGI [10] | GI50 [2] | GI50 [10] | GI50 [1] | GI50 [4] | GI50 [5] | GI50 [6] | GI50 [7] | GI50 [8] | GI50 [9] | GI50 [3]
CCCCCCCCCCCCCCN | > 100 µM | > 100 µM | > 100 µM | > 100 µM | > 100 µM | > 100 µM | > 100 µM | > 100 µM | > 100 µM |  |  |  |  |  |  |  |  |  |  | 
O=C(c1ccccc1)C1CCCCN1C(=O)c1ccccc1 (stereo not drawn) | > 100 µM | > 100 µM | > 100 µM | > 100 µM |  | > 100 µM | > 100 µM | > 100 µM | > 100 µM | > 100 µM |  |  |  |  |  |  |  |  |  | 
COc1ccc(NC(=O)C(=O)Cc2nc3ccc([N+](=O)[O-])cc3[nH]c2=O)c(OC)c1 | > 100 µM | > 100 µM | > 100 µM | > 100 µM | > 100 µM | > 100 µM | > 100 µM | > 100 µM | > 100 µM | > 100 µM |  |  |  |  |  |  |  |  |  | 
CS(=O)(=O)OCCN1CCN(C(=O)c2cccc3c(Nc4ccc(S(=O)(=O)N=C(N)N)cc4)c4ccccc4nc23)CC1 | > 100 µM |  | > 100 µM | > 100 µM | > 100 µM | > 100 µM | > 100 µM | > 100 µM | > 100 µM | > 100 µM |  |  |  |  |  |  |  |  |  | 
COc1cc(/C=C\c2ccc(C)cc2)cc(OC)c1OC |  | 36.5 µM |  |  | 0.276 µM |  |  | 0.232 µM |  |  | 0.0044 µM |  |  |  |  |  |  |  |  | 
COC[C@@H](N=CN1CCc2cc(OC)c(OC)cc2[C@@H]1C)C(C)(C)C | > 100 µM | > 100 µM | > 100 µM |  | > 100 µM | > 100 µM | > 100 µM | > 100 µM | > 100 µM | > 100 µM |  |  |  |  |  |  |  |  |  | 
CC1(C)C(=O)C(C)(C)C1=NN | > 100 µM |  | > 100 µM |  | > 100 µM | > 100 µM | > 100 µM | > 100 µM | > 100 µM | > 100 µM |  |  |  |  |  |  |  |  |  | 
Cc1ccc(-c2cc(-c3ccco3)c(C#N)c(=O)[nH]2)cc1 | > 100 µM |  | > 100 µM | > 100 µM | > 100 µM | > 100 µM | > 100 µM | > 100 µM | > 100 µM | > 100 µM |  |  |  |  |  |  |  |  |  | 
CCOC(=O)C1=C(C(=O)c2ccc(C)cc2)C(c2cccc([N+](=O)[O-])c2)C(C(=O)c2ccc(C)cc2)=C(C(=O)OCC)N1 | 34.2 µM | > 100 µM | 66.4 µM |  | 30.1 µM | 25.4 µM | 68.6 µM | > 100 µM | 19.6 µM | 25.9 µM |  |  |  |  |  |  |  |  |  | 
O=C(Nc1ccc(F)cc1)c1ccc(NC2=C(Cl)C(=O)N(Cc3ccccc3)C2=O)cc1 | 39.5 µM | 19.3 µM |  | 31.9 µM | 84.4 µM | 38 µM | 32.2 µM | > 100 µM | 4.82 µM | 41.3 µM | 5.34 µM | 10.8 µM | 16.5 µM | 13.6 µM | 31.5 µM | 15.9 µM | 12.2 µM | 7.32 µM | 2.23 µM | 
Clc1ccc(Cc2nc3ccccc3s2)c(Cl)c1 | 33.1 µM | 32.7 µM | 30.9 µM | 41.5 µM |  | 34.9 µM | 36 µM | 41.4 µM |  | 49.1 µM |  |  |  |  |  |  |  |  |  | 
O=Nc1c(-c2c(O)[nH]c3ccc([N+](=O)[O-])cc23)[nH]c2ccc(O)cc12 | > 100 µM | 0.757 µM | 45.3 µM | 1.24 µM | > 49.5 µM | 1.28 µM | 0.475 µM |  |  | > 100 µM | 0.293 µM | 0.465 µM | 0.435 µM | 0.218 µM | 0.549 µM | 0.298 µM | 0.18 µM | 0.32 µM |  | 0.781 µM
COC(=O)C(C(=O)C(=O)Nc1ccc(C(F)(F)F)cc1[N+](=O)[O-])c1csc(-n2nc(-c3ccccc3)cc2-c2ccccc2)n1 (stereo not drawn) |  | > 100 µM | > 100 µM | > 100 µM | > 100 µM | > 100 µM | > 100 µM | > 100 µM | > 100 µM | > 100 µM |  |  |  |  |  |  |  |  |  | 
C1C[OH+]CC[OH+]CCNCC[OH+]CC[OH+]CCN1.[Cl-].[Pt+4] | > 100 µM |  | > 100 µM | > 100 µM | > 100 µM | > 100 µM |  |  | > 100 µM | > 100 µM |  | > 100 µM | > 100 µM | > 100 µM | > 100 µM | > 100 µM |  |  | > 100 µM | > 100 µM
COC1=CC(=O)C2C(C1=O)[C@@H]1c3ccccc3C[C@H]21 (stereo partly drawn) | > 100 µM | > 100 µM | > 100 µM | > 100 µM | > 100 µM | > 100 µM | > 100 µM | > 100 µM |  | > 100 µM |  |  |  |  |  |  |  |  |  | 
CCCCS(=O)CCC(N)C(=O)O (stereo not drawn) | > 100 µM |  | > 100 µM | > 100 µM | > 100 µM | > 100 µM | > 100 µM | > 100 µM | > 100 µM | > 100 µM |  |  |  |  |  |  |  |  |  | 
CC(C)C1(O)C(c2ccccc2)=C(c2ccccc2)C(c2ccccc2)=C1c1ccccc1 |  | 18.9 µM | 30.9 µM | 56.3 µM | 91.3 µM | 17.9 µM | 13.3 µM | 46.8 µM | 13.4 µM | > 100 µM |  |  |  |  |  |  |  |  |  | 
CCCCc1c2c(nc3c1CCc1cc4cc5c(nc4nc1-3)-c1nc3c(c(CCCC)c1CC5)CCCC3)CCCC2 | > 100 µM |  | > 100 µM |  | > 100 µM | > 100 µM | 71.4 µM | > 100 µM | > 100 µM | > 100 µM |  |  |  |  |  |  |  |  |  | 
CC1CC#CCOC(=O)CCCC1=O (stereo not drawn) | > 100 µM |  |  |  | > 100 µM | > 100 µM | > 100 µM | > 100 µM | > 100 µM | > 100 µM |  |  |  |  |  |  |  |  |  | 
CO/C(=N\N=C\c1cccc(Cl)c1)c1ccncc1 |  | > 10 µM | > 10 µM |  | > 10 µM | > 10 µM | > 10 µM | > 10 µM | > 10 µM | > 10 µM |  |  |  |  |  |  |  |  |  | 
NCCCOCC(=O)O | > 100 µM | > 100 µM | > 100 µM |  | > 100 µM | > 100 µM | > 100 µM |  | > 100 µM | > 100 µM |  |  |  |  |  |  |  |  |  | 
O=C(/C=C/C12c3ccccc3C(c3ccccc31)C1C(=O)N(c3ccccc3)C(=O)C12)c1ccccc1 (stereo not drawn) | 7.09 µM | 7.85 µM |  | 2.2 µM | 18.1 µM | > 100 µM | 2.82 µM | 4.69 µM | 2.07 µM | > 100 µM | 2.13 µM | 3.08 µM | 2.48 µM | 0.763 µM | 2.69 µM | 2.64 µM | 1.21 µM | 1.92 µM | 0.695 µM | 
